PubChem BioAssay (NCI)
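GI50 is the concentration that inhibits growth by half. TGI denotes the concentration required for complete inhibition of growth.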

Assays:
Test in all cases: NCI-60 cell line screen, 384-well format
[1] = test system: SNB-19 CNS
[2] = test system: BT-549 breast
[3] = test system: 786-0 renal
[4] = test system: MALME-3M melanoma
[5] = test system: HCT-15 colon
[6] = test system: COLO 205 colon
[7] = test system: SN12C renal
[8] = test system: NCI/ADR-RES ovarian
[9] = test system: SF-295 CNS
[10] = test system: HCT-116 colon
[11] = test system: TK-10 renal
[12] = test system: HS 578T breast
[13] = test system: ACHN renal
[14] = test system: IGROV1 ovarian
[15] = test system: M14 melanoma
[16] = test system: PC-3 prostate
[17] = test system: HOP-92 NSCLC
[18] = test system: A549 NSCLC
[19] = test system: KM12 colon
[20] = test system: OVCAR-4 ovarian
[21] = test system: CAKI-1 renal
[22] = test system: DU-145 prostate
[23] = test system: RPMI-8226 leukemia
[24] = test system: LOX IMVI melanoma
[25] = test system: K-562 leukemia
[26] = test system: NCI-H322M lung
[27] = test system: SK-OV-3 ovarian
[28] = test system: UACC-62 melanoma
[29] = test system: MCF7 breast
[30] = test system: SW-620 colon
[31] = test system: OVCAR-3 ovarian
[32] = test system: HT29 colon
[33] = test system: SF-539 CNS
[34] = test system: SK-MEL-2 melanoma
[35] = test system: A498 renal
[36] = test system: HCC-2998 colon
[37] = test system: U251 glioblastoma
[38] = test system: HOP-62 NSCLC
[39] = test system: HL-60(TB) leukemia
[40] = test system: OVCAR-8 ovarian
[41] = test system: RXF 393 renal
[42] = test system: NCI-H460 NSCLC
[43] = test system: NCI-H226 lung
[44] = test system: MDA-MB-468 breast
[45] = test system: SK-MEL-28 melanoma
[46] = test system: SF-268 CNS
[47] = test system: SNB-75 CNS
[48] = test system: SK-MEL-5 melanoma
[49] = test system: CCRF-CEM leukemia
[50] = test system: MOLT-4 leukemia
[51] = test system: MDA-MB-435 melanoma
[52] = test system: EKVX NSCLC
[53] = test system: NCI-H522 lung
[54] = test system: NCI-H23 lung
[55] = test system: UACC-257 melanoma

## CN(C)c1ccc(N)c2ccccc12
[1]
  GI50: 3.4 µM
  TGI: 11.7 µM
[2]
  GI50: 1.5 µM
  TGI: 2.84 µM
[3]
  GI50: 2.16 µM
  TGI: 9.6 µM
[4]
  GI50: 0.448 µM
  TGI: 1.68 µM
[5]
  GI50: 1.47 µM
  TGI: 3.54 µM
[6]
  GI50: 2.09 µM
  TGI: 4.21 µM
[7]
  GI50: 1.76 µM
  TGI: 3.19 µM
[8]
  GI50: 11.8 µM
  TGI: 24.6 µM
[9]
  GI50: 7.17 µM
  TGI: 20.1 µM
[10]
  GI50: 2.2 µM
  TGI: 5.93 µM
[11]
  GI50: 11.3 µM
  TGI: 23.5 µM
[12]
  GI50: 2.44 µM
  TGI: 6.72 µM
[13]
  GI50: 12.1 µM
  TGI: 24.6 µM
[14]
  GI50: 1.86 µM
  TGI: 16.1 µM
[15]
  GI50: 1.5 µM
  TGI: 2.84 µM
[16]
  GI50: 1.34 µM
  TGI: 6.24 µM
[17]
  GI50: 5.85 µM
  TGI: 19.5 µM
[18]
  GI50: 4.16 µM
  TGI: 16.6 µM
[19]
  GI50: 3.65 µM
  TGI: 14.8 µM
[20]
  GI50: 0.397 µM
  TGI: 3.65 µM
[21]
  GI50: 13.1 µM
  TGI: 26 µM
[22]
  GI50: 1.41 µM
  TGI: 2.73 µM
[23]
  GI50: 1.83 µM
  TGI: 5.98 µM
[24]
  GI50: 0.217 µM
  TGI: 1.56 µM
[25]
  GI50: 18.4 µM
  TGI: 32.4 µM
[26]
  GI50: 2.1 µM
  TGI: 3.86 µM
[27]
  GI50: 10.1 µM
  TGI: 21.8 µM
[28]
  GI50: 1.24 µM
  TGI: 2.5 µM
[29]
  GI50: 1.34 µM
  TGI: 2.64 µM
[30]
  GI50: 1.64 µM
  TGI: 3.11 µM
[31]
  GI50: 1.16 µM
  TGI: 2.52 µM
[32]
  GI50: 4.55 µM
  TGI: 16.4 µM
[33]
  GI50: 1.75 µM
  TGI: 3.3 µM
[34]
  GI50: 1.26 µM
  TGI: 2.77 µM
[35]
  GI50: 11.9 µM
  TGI: 24.3 µM
[36]
  GI50: 2.4 µM
  TGI: 16.2 µM
[37]
  GI50: 7.75 µM
  TGI: 20.4 µM
[38]
  GI50: 1.59 µM
  TGI: 2.98 µM
[39]
  GI50: 0.814 µM
  TGI: 2.1 µM
[40]
  GI50: 5.33 µM
  TGI: 17.5 µM
[41]
  GI50: 2.68 µM
  TGI: 10.5 µM
[42]
  GI50: 2.93 µM
  TGI: 10.4 µM
[43]
  GI50: 1.28 µM
  TGI: 7.63 µM
[44]
  GI50: 0.591 µM
  TGI: 4.61 µM
[45]
  GI50: 1.76 µM
  TGI: 3.71 µM
[46]
  GI50: 8.32 µM
  TGI: 20.5 µM
[47]
  GI50: 2.39 µM
  TGI: 7.53 µM
[48]
  GI50: 0.146 µM
  TGI: 1.61 µM
[49]
  GI50: 4.65 µM
  TGI: 19.1 µM
[50]
  GI50: 0.802 µM
  TGI: 2.48 µM
[51]
  GI50: 1.36 µM
  TGI: 2.65 µM
[52]
  GI50: 1.7 µM
  TGI: 8.1 µM
[53]
  GI50: 2.77 µM
  TGI: 11.6 µM
[54]
  GI50: 1.47 µM
  TGI: 2.88 µM
[55]
  GI50: 1.04 µM
  TGI: 2.22 µM
